Earlier results in patent publication US20040109898A1, “Topical composition for heightened sensitivity” (priority 2002, published 2004).
Like-named read-outs stand apart in the source and are kept apart here.

Legend:
[1] = cold, heat, cooking, freezing

| Compound | Scoville Units rating (panel of individuals; individual capsaicinoid) [million Scoville Units] | Scoville Unit (SU) rating (panel of individuals; pure, individual capsaicinoids) [million SU] | stability / retention of potency [1] | detectable to the palate in dilutions of (palate) | solubility in alcohols, fats, and oils (alcohols, fats, and oils) | solubility in water (water) | Scoville Unit (SU) rating (panel of individuals) [million SU] |
| --- | --- | --- | --- | --- | --- | --- | --- |
| COc1cc(CNC(=O)CCCC/C=C/C(C)C)ccc1O [Capsaicin, 8-methyl-N-vanillyl-6-(E)-nonenamide] | 16 | 16 | seemingly unaffected by cold or heat, which retains its original potency despite time, cooking, or freezing | one to seventeen million | very soluble | slightly soluble | – |
| COc1cc(CNC(=O)CCCCC/C=C/C(C)C)ccc1O [Homocapsaicin, 9-methyl-N-vanillyl-7-(E)-decenamide] | – | – | – | – | – | – | 8.6 |
| COc1cc(CNC(=O)CCCCCCCC(C)C)ccc1O [Homodihydrocapsaicin, 9-methyl-N-vanillyl-decanamide] | – | 8.6 | – | – | – | – | – |
